Laboratory results reported in PubChem BioAssay AID602135 (Sanford-Burnham Center for Chemical Genomics, 2011).
Active and inactive are the calls of the source.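 How the source made its calls: active means mean IC50 under 10 µM against uracil DNA glycosylase, used as a counter screen; inactive means the rest.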

Target: Uracil-DNA glycosylase (Escherichia coli (strain K12)) (UniProt P12295)
Experiment: inhibitors of E. coli UDG, SAR follow-up, counter-screen for APOBEC3G deaminase inhibitor project, biochemical, UDG counterscreen (AID 602135)
Details: FAM/TAMRA oligo fluorescence

Uracil-DNA glycosylase (Escherichia coli (strain K12)), sequence (P12295 whole entry, looked up): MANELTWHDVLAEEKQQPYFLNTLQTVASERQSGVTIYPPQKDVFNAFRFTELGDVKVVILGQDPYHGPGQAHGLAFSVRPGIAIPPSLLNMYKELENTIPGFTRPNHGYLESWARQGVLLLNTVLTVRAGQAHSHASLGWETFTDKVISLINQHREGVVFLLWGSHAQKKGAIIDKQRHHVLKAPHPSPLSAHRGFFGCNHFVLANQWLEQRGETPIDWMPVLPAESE

SMILES	IC50
O=C1NC(=S)NC(=O)C1=Cc1ccc2c(c1)CCN2CCCCl	> 99 µM (inactive)
O=C(NCc1ccc2c(c1)OCO2)c1nn2cccnc2c1Cl	> 99 µM (inactive)
CC(C(=O)O)N1C(=O)/C(=C/C=C/c2ccco2)SC1=S (stereo not given)	> 99 µM (inactive)
CC1(C)Oc2ccc3ccc(=O)oc3c2/C(=C/NCCO)C1=O	> 99 µM (inactive)
Cc1ccc[n+](CC(=O)Nc2cc(C(F)(F)F)ccc2N2CCOCC2)c1	> 99 µM (inactive)
Cc1ccc2[nH]cc(/C=C/c3cc[n+](C)cc3)c2c1	> 99 µM (inactive)
CCC(=O)Nc1cccc(-c2nnc(SCC(=O)NCc3ccco3)n2C)c1	> 99 µM (inactive)
CCCCn1c(=O)c2ccccc2n2c(=S)[nH]nc12	> 99 µM (inactive)
O=C(NCc1ccc2c(c1)OCO2)c1cc2ncc(Br)cn2n1	> 99 µM (inactive)
CCn1ncc(-c2ccnc3cc(C(=O)O)nn23)c1C	> 99 µM (inactive)
CCCCCn1c(=O)c2ccccc2n2c(=S)[nH]nc12	> 99 µM (inactive)
S=c1[nH]nc2c3c4c(sc3ncn12)CCCC4	> 99 µM (inactive)
Cn1nc([N+](=O)[O-])nc1S(C)(=O)=O	> 99 µM (inactive)
Cc1ccc2c(c1C)NC(C(=O)O)C1CC=CC21 (stereo not given)	> 99 µM (inactive)
Cc1ccc(C=Nn2c(-c3ccco3)n[nH]c2=S)s1	> 99 µM (inactive)
C[n+]1cccc(C(=O)Nc2ccccc2)c1	> 99 µM (inactive)
CC(C)(C)NC(=O)CSc1nc2ccc(NC(=O)CSc3nnc(N)s3)cc2s1	> 99 µM (inactive)
CCOC(=O)c1ccc2c(c1)N(C)C(=O)c1ccccc1S2	> 99 µM (inactive)
Nn1c(-c2cccc(Br)c2)n[nH]c1=S	> 99 µM (inactive)
Cc1ccc(C)n1Cc1ccc(C(=O)O)cc1	> 99 µM (inactive)
CC(=O)c1ccc2c(c1)C1C=CCC1C(C(=O)O)N2 (stereo not given)	> 99 µM (inactive)
COc1cc(C=Nn2c(-c3n[nH]c4c3CCC4)n[nH]c2=S)ccc1O	> 99 µM (inactive)
S=c1[nH]nc(NCCc2ccccc2)s1	> 99 µM (inactive)
Cc1ccc(-c2csc3n[nH]c(=S)n23)cc1	> 99 µM (inactive)
COc1ccc(-c2nc(=S)[nH][nH]2)cc1	> 99 µM (inactive)
